Measurements reported in patent US10433551B2, “3-pyridyloxyphenyldihydrouracil compound and use thereof” (Sumitomo Chemical Company, Limited, priority 2016, dated 2019).

What was measured:
Assay type in all cases: cell-based
[1] = tested on: damping-off fungi (Pythium ultimum); assay: Test for controlling damping-off fungi, growth in titer plate (absorbance 600 nm); details: 1 μL in 150 μL Czapek medium with mycelial suspension, 23° C., five days
Experimental: (§1) In the test examples 1 to 4, a non-treated area means an area in which a test was conducted in the same manner as each test example, except that dimethyl sulfoxide was dispensed in place of the present compound diluted with dimethyl sulfoxide.
(§2) Four point five (4.5) milligrams of the present compound was diluted with 100 μL of dimethyl sulfoxide. One (1) μL portion of the diluted liquid was dispensed into a titer plate (96 wells), and thereto was then dispensed 150 μL of a potato dextrose broth medium (PDB medium) containing zoospores of cucumber phytophthora blight fungi (Phytophthora capsici). This plate was cultured at 27° C. for three days, thereby allowing the cucumber phytophthora blight fungi to undergo proliferation, and the absorbance at 600 nm of each well of the titer plate was then measured to determine a degree of growth of the cucumber phytophthora blight fungi. The efficacy was calculated from the determined degree of growth by the below-mentioned “Equation 1”. […]
Four point five (4.5) milligrams of the present compound was diluted with 100 μL of dimethyl sulfoxide. […] This plate was cultured at 23° C. for five days, thereby allowing the damping-off fungi to undergo proliferation, and the absorbance at 600 nm of each well of the titer plate was then measured to determine a degree of growth of the damping-off fungi. […]

[2] = tested on: barley scald fungi (Rhynchosporium secalis); assay: Test for controlling barley scald fungi, growth in titer plate (absorbance 600 nm); details: Test Example 4; 4.5 mg in 100 μL DMSO, 1 μL in 150 μL PDB medium with spores; 18° C., seven days
Experimental: as §1, §2
Four point five (4.5) milligrams of the present compound was diluted with 100 μL of dimethyl sulfoxide. […] This plate was cultured at 18° C. for seven days, thereby allowing the barley scald fungi to undergo proliferation, and the absorbance at 600 nm of each well of the titer plate was then measured to determine a degree of growth of the barley scald fungi. […]

[3] = tested on: cucumber phytophthora blight fungi (Phytophthora capsici); assay: Test for controlling cucumber phytophthora blight fungi, growth in titer plate (absorbance 600 nm); details: Test Example 1; 4.5 mg in 100 μL DMSO, 1 μL in 150 μL PDB medium with zoospores; 27° C., three days
Experimental: as §1
Four point five (4.5) milligrams of the present compound was diluted with 100 μL of dimethyl sulfoxide. One (1) μL portion of the diluted liquid was dispensed into a titer plate (96 wells), and thereto was then dispensed 150 μL of a potato dextrose broth medium (PDB medium) containing zoospores of cucumber phytophthora blight fungi (Phytophthora capsici). This plate was cultured at 27° C. for three days, thereby allowing the cucumber phytophthora blight fungi to undergo proliferation, and the absorbance at 600 nm of each well of the titer plate was then measured to determine a degree of growth of the cucumber phytophthora blight fungi. The efficacy was calculated from the determined degree of growth by the below-mentioned “Equation 1”. As a result, the efficacy of the Present compound was 90% or more. Efficacy=100×(X−Y)/X “Equation 1” where X: Degree of fungal growth in non-treated area Y: Degree of fungal growth in treated area

Measured: efficacy

CCOC(=O)COc1ncccc1Oc1cc(N2C(=O)CC(O)(C(F)(F)F)NC2=O)c(F)cc1Cl (stereo not shown) [Present compound]
≥ 90%: [1]; Test Example 2, 4.5 mg in 100 μL DMSO | [1]; Test Example 3, 1.12 mg in 100 μL DMSO | [2] | [3]
